Results on six compounds are retold here after patent US6573260B1, “Cycloalkyl-substituted aminomethylpyrrolidine derivatives” (Daiichi Pharmaceutical Co., Ltd., priority 1998, dated 2003).

Converted amounts (≈) assume the structure as drawn. Like-named read-outs stand apart in the source and are kept apart here.

Assay in all cases: antibacterial activity (MIC), standard method of the Japan Society of Chemotherapy
Format in all cases: cell-based

One experiment concerns E. coli, NIHJ. As to the method: (§1) The antibacterial activity of each compound of the present invention was measured in accordance with the standard method specified by the Japan Society of Chemotherapy, with the results shown in the following Table 2 as MIC values (μg/ml). In this connection, MIC values of levofloxacin (LVFX) and ciprofloxacin (CPEX) are also shown for the sake of comparison with the MIC values of the compounds of the present invention.

The test system of another experiment is E. faecalis, ATCC 19433. As to the method: as §1
Another experiment relates to K. pneumoniae TYPE 1. As to the method:
as §1

The test system of the next experiment is PS. aeruginosa, 32121. As to the method:
as §1

A further experiment has as its system Pr. vulgaris, 08601. As to the method:
as §1

In a further experiment the test system is Ps. aeruginosa, 32104. As to the method: as §1
Another experiment relates to S. aureus, 870307. As to the method: as §1
The next experiment deals with S. aureus, FDA 209P. As to the method: as §1
The subject of a further experiment is S. epidermidis, 56500. As to the method:
as §1

For the next experiment, the system named is S. flexneri, 2A 5503. As to the method: as §1
The next experiment relates to Ser. marcescens, 10100. As to the method: as §1
The subject of another experiment is Str. pneumoniae, J24. As to the method:
as §1

Another experiment concerns Str. pyogenes, G-36. As to the method:
as §1

The next experiment concerns X. maltophilia, IID 1275. As to the method:
as §1

The mark [1] stands for this setting: Escherichia coli, read-out: MIC.
The mark [2] stands for this setting: Enterococcus faecalis, ATCC19433, read-out: MIC.
Setting [3] is: Klebsiella pneumoniae, TYPE1, read-out: MIC.
The mark [4] stands for this setting: Pseudomonas aeruginosa, read-out: MIC.
[5] abbreviates: Proteus vulgaris, read-out: MIC.
Where [6] appears, read: Staphylococcus aureus, read-out: MIC.
[7] abbreviates: Staphylococcus aureus, FDA209P, read-out: MIC.
Setting [8] is: Staphylococcus epidermidis, read-out: MIC.
Setting [9] is: Shigella flexneri, 2A5503, read-out: MIC.
[10] abbreviates: Serratia marcescens, read-out: MIC.
The mark [11] stands for this setting: Streptococcus pneumoniae, read-out: MIC.
Where [12] appears, read: Streptococcus pyogenes, G36, read-out: MIC.
The mark [13] stands for this setting: Stenotrophomonas maltophilia, IID1275, read-out: MIC.

Broadly, the MIC is the lowest concentration found to suppress growth. On to `O=C(O)c1cn(C2CC2)c2cc(N3CCNCC3)c(F)cc2c1=O` [CPFX, ciprofloxacin, reference compound], for which the MIC was not above 0.003 µg/mL in the experiment with E. coli, NIHJ (setting [1]); 0.78 µg/mL (≈ 2.35 µM) in the experiment on E. faecalis, ATCC 19433 (setting [2]); 0.025 µg/mL (≈ 0.0754 µM) with K. pneumoniae TYPE 1 (setting [3]); 0.025 µg/mL (≈ 0.0754 µM) in the experiment on PS. aeruginosa, 32121 (setting [4]); not above 0.003 µg/mL with Pr. vulgaris, 08601 (setting [5]); 0.05 µg/mL (≈ 0.151 µM) in the experiment with Ps. aeruginosa, 32104 (setting [4]). Besides, the MIC in the experiment with S. aureus, 870307 (setting [6]) is 3.13 µg/mL (≈ 9.45 µM); in the experiment with S. aureus, FDA 209P (setting [7]), 0.1 µg/mL (≈ 0.302 µM); with S. epidermidis, 56500 (setting [8]) it was 0.2 µg/mL (≈ 0.604 µM); with S. flexneri, 2A 5503 (setting [9]), 0.006 µg/mL (≈ 0.0181 µM); in the experiment with Ser. marcescens, 10100 (setting [10]) it was 0.025 µg/mL (≈ 0.0754 µM); with Str. pneumoniae, J24 (setting [11]) it was 0.1 µg/mL (≈ 0.302 µM). In addition, the MIC was 1.56 µg/mL (≈ 4.71 µM) in the experiment with Str. pyogenes, G-36 (setting [12]) and 0.78 µg/mL (≈ 2.35 µM) in the experiment with X. maltophilia, IID 1275 (setting [13]).

Regarding `C[C@H]1COc2c(N3CCN(C)CC3)c(F)cc3c(=O)c(C(=O)O)cn1c23` [LVFX, levofloxacin, reference compound], the MIC in the experiment on E. coli, NIHJ (setting [1]) worked out at 0.013 µg/mL (≈ 0.036 µM); in the experiment on E. faecalis, ATCC 19433 (setting [2]) it was 0.78 µg/mL (≈ 2.16 µM); with K. pneumoniae TYPE 1 (setting [3]), 0.1 µg/mL (≈ 0.277 µM); in the experiment with PS. aeruginosa, 32121 (setting [4]), 0.1 µg/mL (≈ 0.277 µM); in the experiment on Pr. vulgaris, 08601 (setting [5]), 0.13 µg/mL (≈ 0.36 µM); in the experiment with Ps. aeruginosa, 32104 (setting [4]) it was 0.2 µg/mL (≈ 0.553 µM). The MIC was more than 6.25 µg/mL in the experiment with S. aureus, 870307 (setting [6]); 0.2 µg/mL (≈ 0.553 µM) in the experiment on S. aureus, FDA 209P (setting [7]); 0.39 µg/mL (≈ 1.08 µM) in the experiment with S. epidermidis, 56500 (setting [8]); 0.025 µg/mL (≈ 0.0692 µM) in the experiment on S. flexneri, 2A 5503 (setting [9]); 0.1 µg/mL (≈ 0.277 µM) in the experiment on Ser. marcescens, 10100 (setting [10]); 0.78 µg/mL (≈ 2.16 µM) in the experiment on Str. pneumoniae, J24 (setting [11]). The MIC with Str. pyogenes, G-36 (setting [12]) came to 0.2 µg/mL (≈ 0.553 µM); in the experiment on X. maltophilia, IID 1275 (setting [13]) it was 0.39 µg/mL (≈ 1.08 µM).

For `Nc1c(F)c(N2CCC(C(N)C3CC3)C2)c(F)c2c1c(=O)c(C(=O)O)cn2C1CC1F` (stereo not drawn) [compound 5], the MIC result was “≦0.003 μg/ml” with E. coli, NIHJ; 0.013 µg/mL (≈ 0.0298 µM) against E. faecalis, ATCC 19433; 0.013 µg/mL (≈ 0.0298 µM) against K. pneumoniae TYPE 1; 0.025 µg/mL (≈ 0.0573 µM) in the experiment on PS. aeruginosa, 32121; 0.013 µg/mL (≈ 0.0298 µM) against Pr. vulgaris, 08601; 0.05 µg/mL (≈ 0.115 µM) against Ps. aeruginosa, 32104. Further, the MIC was 0.025 µg/mL (≈ 0.0573 µM) against S. aureus, 870307; “≦0.003 μg/ml” in the experiment on S. aureus, FDA 209P; “≦0.003 μg/ml” in the experiment with S. epidermidis, 56500; “≦0.003 μg/ml” with S. flexneri, 2A 5503; 0.025 µg/mL (≈ 0.0573 µM) in the experiment on Ser. marcescens, 10100; “≦0.003 μg/ml” against Str. pneumoniae, J24. The MIC entry was “≦0.003 μg/ml” in the experiment with Str. pyogenes, G-36 and 0.05 µg/mL (≈ 0.115 µM) against X. maltophilia, IID 1275.

For `COc1c(N2CCC(C(N)C3CC3)C2)c(F)cc2c(=O)c(C(=O)O)cn(C3CC3F)c12` (stereo not drawn) [compound 6], the MIC result was “≦0.003 μg/ml” against E. coli, NIHJ; 0.025 µg/mL (≈ 0.0577 µM) with E. faecalis, ATCC 19433; 0.05 µg/mL (≈ 0.115 µM) with K. pneumoniae TYPE 1; 0.05 µg/mL (≈ 0.115 µM) against PS. aeruginosa, 32121; 0.013 µg/mL (≈ 0.03 µM) against Pr. vulgaris, 08601; 0.1 µg/mL (≈ 0.231 µM) in the experiment on Ps. aeruginosa, 32104. Moreover, the MIC was 0.1 µg/mL (≈ 0.231 µM) against S. aureus, 870307; “≦0.003 μg/ml” against S. aureus, FDA 209P; 0.006 µg/mL (≈ 0.0138 µM) against S. epidermidis, 56500; 0.006 µg/mL (≈ 0.0138 µM) with S. flexneri, 2A 5503; 0.1 µg/mL (≈ 0.231 µM) in the experiment on Ser. marcescens, 10100; “≦0.003 μg/ml” against Str. pneumoniae, J24. Besides, the MIC result is “≦0.003 μg/ml” in the experiment with Str. pyogenes, G-36 and 0.2 µg/mL (≈ 0.461 µM) with X. maltophilia, IID 1275.

For the compound `Cc1c(N2CCC(C(N)C3CC3)C2)c(F)c(N)c2c(=O)c(C(=O)O)cn(C3CC3F)c12` (stereo not drawn) [compound 7], the MIC entry with E. coli, NIHJ is “≦0.003 μg/ml”; in the experiment with E. faecalis, ATCC 19433 it was 0.013 µg/mL (≈ 0.0301 µM); against K. pneumoniae TYPE 1, 0.025 µg/mL (≈ 0.0578 µM); against PS. aeruginosa, 32121, 0.025 µg/mL (≈ 0.0578 µM); in the experiment with Pr. vulgaris, 08601, 0.013 µg/mL (≈ 0.0301 µM); in the experiment with Ps. aeruginosa, 32104, 0.05 µg/mL (≈ 0.116 µM). The MIC against S. aureus, 870307 is 0.025 µg/mL (≈ 0.0578 µM); against S. aureus, FDA 209P, “≦0.003 μg/ml”; with S. epidermidis, 56500, “≦0.003 μg/ml”; in the experiment with S. flexneri, 2A 5503 it was “≦0.003 μg/ml”; against Ser. marcescens, 10100, 0.05 µg/mL (≈ 0.116 µM); in the experiment on Str. pneumoniae, J24, “≦0.003 μg/ml”. Also, the MIC result against Str. pyogenes, G-36 was “≦0.003 μg/ml”; in the experiment with X. maltophilia, IID 1275, 0.05 µg/mL (≈ 0.116 µM).

As for `COc1c(N2CCC(C(N)C3CC3)C2)ccc2c(=O)c(C(=O)O)cn(C3CC3)c12` (stereo not drawn) [compound 8], the MIC worked out at 0.006 µg/mL (≈ 0.0151 µM) in the experiment on E. coli, NIHJ; 0.05 µg/mL (≈ 0.126 µM) in the experiment with E. faecalis, ATCC 19433; 0.1 µg/mL (≈ 0.252 µM) with K. pneumoniae TYPE 1; 0.2 µg/mL (≈ 0.503 µM) with PS. aeruginosa, 32121; 0.05 µg/mL (≈ 0.126 µM) in the experiment with Pr. vulgaris, 08601; 0.39 µg/mL (≈ 0.981 µM) against Ps. aeruginosa, 32104. Also, the MIC in the experiment on S. aureus, 870307 was 0.2 µg/mL (≈ 0.503 µM); with S. aureus, FDA 209P it was 0.006 µg/mL (≈ 0.0151 µM); with S. epidermidis, 56500, 0.025 µg/mL (≈ 0.0629 µM); against S. flexneri, 2A 5503, 0.1 µg/mL (≈ 0.252 µM); against Ser. marcescens, 10100 it was 0.2 µg/mL (≈ 0.503 µM); in the experiment with Str. pneumoniae, J24 it was 0.006 µg/mL (≈ 0.0151 µM). Moreover, the MIC against Str. pyogenes, G-36 came out at 0.013 µg/mL (≈ 0.0327 µM); in the experiment on X. maltophilia, IID 1275, 0.2 µg/mL (≈ 0.503 µM).
